According to paper PMC10401651, “Characterization of Uranyl (UO2^2+) Ion Binding to Amyloid Beta (Aβ) Peptides: Effects on Aβ Structure and Aggregation” (ACS Chemical Neuroscience, 2023):
Several values for one entry are separate records, joined by “and”; a condition that tells them apart may be missing. Identical values can stand only once. Like-named read-outs stand apart in the source and are kept apart here.

Target: T1, Aβ40 peptide (Homo sapiens, UniProt P05067)
T1 construct: namely, the Aβ40 peptide and the Aβ40 (H6A, H13A, and H14A) triple-mutant; purchased AlexoTech AB (Umeå, Sweden); host or cells: recombinant
Experiment: Binding affinity via Tyr10 fluorescence quenching, Aβ40
Conditions: for Kd: 20 μM Aβ40
Protocol: Fluorescence measurements were conducted on a Jobin Yvon Horiba Fluorolog 3 fluorescence spectrophotometer (Longjumeau, France) using a quartz cuvette with a 4 mm path length. […] Apparent dissociation constants (KD^App) were determined by fitting the plots to eq 2 [drawing 2] 2 where I0 is the initial fluorescence intensity with no added UO2^2+ ions, I∞ is the steady-state intensity at the end of the titration, [Ab] is the protein concentration, and [U] is the concentration of added UO2^2+ ions.[121],[160]

T1 sequence (P05067 672-711 limits assumed): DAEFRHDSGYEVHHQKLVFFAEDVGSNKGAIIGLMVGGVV

## CC(=O)[O-].CC(=O)[O-].[O]=[U+2]=[O] [uranyl ions, uranyl acetate]
General statement of the abstract
  affinities for binding to Aβ peptides: micromolar range
pH 5.1 + 50 mM SDS, read-out: KD^App, single replicates
  Kd: 21.8 µM and 21.7 µM and 27.4 µM
pH 5.1 + 50 mM SDS, three replicates, read-out: KD^App, average
  Kd: 23.6 ± 3 µM
pH 5.1, 20 mM MES, read-out: KD^App, single replicates
  Kd: 14 µM and 13.7 µM and 21.3 µM
pH 5.1, 20 mM MES, three replicates, read-out: KD^App, average
  Kd: 16.3 ± 4 µM
pH 7.3 + 50 mM SDS, not to be trusted, read-out: KD^App, single replicates
  Kd: 206 µM and 252 µM and 251 µM
pH 7.3 + 50 mM SDS, three replicates, not to be trusted, read-out: KD^App, average
  Kd: 236 ± 22 µM
pH 7.3, 20 mM MES, data deviate from single-site model, not to be trusted, read-out: KD^App, single replicates
  Kd: 130 µM and 141 µM and 148 µM
pH 7.3, 20 mM MES, three replicates, not to be trusted, read-out: KD^App, average
  Kd: 140 ± 8 µM
